Series [1] addresses T1, Adenosine receptor A3 (Homo sapiens, UniProt P0DMS8).
T1 sequence (P0DMS8 whole entry): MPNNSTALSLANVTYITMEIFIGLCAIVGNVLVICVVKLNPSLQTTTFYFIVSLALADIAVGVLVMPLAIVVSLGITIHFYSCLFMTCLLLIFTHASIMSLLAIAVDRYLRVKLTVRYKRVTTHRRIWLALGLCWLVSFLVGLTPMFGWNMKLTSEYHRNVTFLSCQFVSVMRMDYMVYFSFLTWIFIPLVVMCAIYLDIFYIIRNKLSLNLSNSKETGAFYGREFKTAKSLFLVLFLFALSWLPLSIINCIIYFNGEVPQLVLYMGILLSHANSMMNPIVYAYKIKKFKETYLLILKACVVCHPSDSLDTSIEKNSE

The nature of series [2]: clinical. Conditions: human, plasma, 5 mg.
Series [3] addresses T2, Aldo-keto reductase family 1 member C3 (Homo sapiens, UniProt P42330).
T2 sequence (P42330 whole entry): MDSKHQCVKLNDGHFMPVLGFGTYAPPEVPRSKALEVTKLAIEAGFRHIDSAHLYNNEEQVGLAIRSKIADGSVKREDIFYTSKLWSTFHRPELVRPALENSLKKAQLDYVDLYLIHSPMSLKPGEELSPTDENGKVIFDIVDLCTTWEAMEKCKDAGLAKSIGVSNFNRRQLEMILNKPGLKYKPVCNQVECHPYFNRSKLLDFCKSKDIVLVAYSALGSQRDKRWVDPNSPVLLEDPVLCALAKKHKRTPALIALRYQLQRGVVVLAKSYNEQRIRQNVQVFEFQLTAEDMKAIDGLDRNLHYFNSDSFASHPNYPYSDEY

Series [4] can be described thus: clinical. The following applies: human, 300 mg.
A short description of series [5]: clinical. Conditions: human, in vivo, po, 50 mg.
The nature of series [6]: clinical. Conditions: human, plasma.
A short description of series [7]: cells. Conditions: Homo sapiens, NIH3T3.
The target of series [8] is Proto-oncogene tyrosine-protein kinase receptor Ret (Homo sapiens, UniProt P07949).

Each structure is given as a SMILES string.

Proto-oncogene tyrosine-protein kinase receptor Ret, sequence (P07949 whole entry): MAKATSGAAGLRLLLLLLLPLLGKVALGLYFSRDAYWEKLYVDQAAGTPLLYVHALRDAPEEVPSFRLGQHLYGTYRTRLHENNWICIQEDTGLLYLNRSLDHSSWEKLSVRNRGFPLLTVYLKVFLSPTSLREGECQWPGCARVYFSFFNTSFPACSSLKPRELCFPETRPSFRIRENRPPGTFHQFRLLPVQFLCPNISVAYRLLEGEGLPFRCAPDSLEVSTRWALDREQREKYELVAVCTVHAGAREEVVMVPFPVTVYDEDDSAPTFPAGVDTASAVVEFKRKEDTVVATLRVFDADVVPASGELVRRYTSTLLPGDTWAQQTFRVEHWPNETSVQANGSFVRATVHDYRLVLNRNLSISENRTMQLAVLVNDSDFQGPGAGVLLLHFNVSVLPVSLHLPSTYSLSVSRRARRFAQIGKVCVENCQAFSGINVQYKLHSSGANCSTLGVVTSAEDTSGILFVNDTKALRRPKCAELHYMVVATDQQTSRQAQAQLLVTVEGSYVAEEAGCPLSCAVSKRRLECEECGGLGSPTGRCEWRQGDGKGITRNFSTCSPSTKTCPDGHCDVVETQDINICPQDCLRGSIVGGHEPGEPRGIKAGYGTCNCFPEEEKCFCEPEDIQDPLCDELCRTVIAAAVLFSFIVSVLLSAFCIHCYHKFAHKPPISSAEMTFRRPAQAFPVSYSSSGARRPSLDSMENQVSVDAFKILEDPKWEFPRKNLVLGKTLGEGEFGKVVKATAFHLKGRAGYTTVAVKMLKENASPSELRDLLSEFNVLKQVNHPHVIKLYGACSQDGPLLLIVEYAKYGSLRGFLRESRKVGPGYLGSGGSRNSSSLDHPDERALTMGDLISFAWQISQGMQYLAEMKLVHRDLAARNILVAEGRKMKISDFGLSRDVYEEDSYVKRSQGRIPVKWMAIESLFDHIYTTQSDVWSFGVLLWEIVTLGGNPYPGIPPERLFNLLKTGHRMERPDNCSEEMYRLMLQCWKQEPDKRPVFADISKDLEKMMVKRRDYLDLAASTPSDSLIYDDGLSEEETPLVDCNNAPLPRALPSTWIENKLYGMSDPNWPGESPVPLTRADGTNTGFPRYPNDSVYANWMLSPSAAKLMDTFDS

In series [1], `COc1cc(Nc2ncc(F)c(Nc3ccc4c(n3)NC(=O)C(C)(C)O4)n2)cc(OC)c1OC` gave an IC50 of 18 nM.
On to `CNC(=O)c1ccccc1Sc1ccc2c(/C=C/c3ccccn3)n[nH]c2c1` [AXITINIB], for which, in series [2], the peak level (Cmax) was 27.8 ng/mL.
Consider `CCc1cnn2c(NCc3ccc[n+]([O-])c3)cc(N3CCCC[C@H]3CCO)nc12` [DINACICLIB], for which the Kd in series [3] came out at 69 nM.
`Cc1cnc(Nc2ccc(OCCN3CCCC3)cc2)nc1Nc1cccc(S(=O)(=O)NC(C)(C)C)c1` [FEDRATINIB] yielded a Cmax in series [4] of 971 ng/mL.
For the compound `CO[C@@H]1[C@H](N(C)C(=O)c2ccccc2)C[C@H]2O[C@]1(C)n1c3ccccc3c3c4c(c5c6ccccc6n2c5c31)C(=O)NC4` [MIDOSTAURIN], in series [5], the concentration peaked (Cmax at 192 h) at 1600 ng/mL.
The compound `Cc1cn(-c2cc(NC(=O)c3ccc(C)c(Nc4nccc(-c5cccnc5)n4)c3)cc(C(F)(F)F)c2)cn1` [NILOTINIB] registered a Cmax in series [6] of 1640 ng/mL. In series [7], this compound registered an IC50 of 374 nM.
Regarding `CCCS(=O)(=O)Nc1ccc(F)c(C(=O)c2c[nH]c3ncc(-c4ccc(Cl)cc4)cc23)c1F` [VEMURAFENIB], half-maximal inhibition in series [8] (IC50) was put at 4.8 nM. In other words, the single-digit nanomolar range.
